Legend:
LIN28–let-7 interaction = molecular target: T1, LIN28–let-7 interaction (Homo sapiens, UniProt Q9H9Z2); assay: Fluorescence polarization (FP) assay, LIN28A (residues 16–187) and FAM-labeled preE-let-7f-1; format: binding; conditions: text and figures; C-labels = library sample, PH-labels = in-house resynthesized; read-out: IC50 in the FP assay
T1 construct: Purified LIN28A (residues 16–187) was incubated at a concentration of 200 nM; His-tag (cleaved yes); made in house; host or cells: Escherichia coli BL21(DE3)
T1 sequence (Q9H9Z2 16-187): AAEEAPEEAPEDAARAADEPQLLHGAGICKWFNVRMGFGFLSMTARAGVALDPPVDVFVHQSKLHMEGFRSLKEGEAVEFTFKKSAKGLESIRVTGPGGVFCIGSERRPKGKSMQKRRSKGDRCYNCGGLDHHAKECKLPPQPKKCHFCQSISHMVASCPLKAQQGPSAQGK
Experimental: Protein expression and purification.
19 vector and overexpressed in Escherichia coli BL21(DE3). The culture was incubated at 37 °C until
the absorbance at 600 nm (OD600) reached 0.5–0.7. IPTG was added to a final concentration of
300 µM, and overnight induction was performed at 18 °C. Cells were harvested by centrifugation.
The bacterial pellet was resuspended in lysis buffer (50 mM NaH2PO4, pH 7.5, 300 mM NaCl,
0.1 mM PMSF) and lysed using a Microfluidizer (Microfluidics) . A fresh portion of 0.1 mM PMSF
and Triton X-100 (1% final concentration) were added. The lysate was cleared by ultra centrifugation
at 30000 xg and 4 °C for 1 h. The protein purification was performed using immobilized nickel
300 mM NaCl and 5 % glycerol. Gradient elution was performed with a maximum of 0.5 M imidazole.
Subsequently, the affinity tag was cleaved using His6 -TEV-protease and the protease and unspecific
binders were eliminated by a second nickel affinity chromatography. After protein concentration
LIN28A containing fractions were concentrated and applied to a High Load Superdex 75 pg 16/600
column (GE Healthcare) with gel-filtration buffer (30 mM NaH2PO4, pH 7.5, 50 mM NaCl, 5%
glycerol, 2 mM β-ME). The purified protein was concentrated and stored at -80 °C until further
Fluorescence polarization. The fluorescence polarization assay was performed in black low volume
IC50 measurements were performed with three technical
minutes with compound concentrations ranging from 0.3 nM to 100 µM in FP assay buffer (20 mM
Tris, pH 7, 100 mM NaCl, 5 mM MgCl2, 2 mM glutathione (reduced), 0.1 % NP-40). Subsequently,
FAM-labeled preE-let-7f-1 (mus musculus) ([…]-
FAM, synthesized by IDT) was added to a final concentration of 2 nM. Fluorescence polarization
was detected after incubation at room temperature using a TECAN Spark plate reader. Half maximal
inhibitory concentrations (IC50) were determined using GraphPad Prism 7. […]

[1] = molecular target: T2, cold-shock domain of LIN28A (Homo sapiens, UniProt Q9H9Z2); assay: Fluorescence quenching binding assay
T2 construct: cold shock domain construct LIN28 A (residues 16– 126)
T2 sequence (Q9H9Z2 16-126): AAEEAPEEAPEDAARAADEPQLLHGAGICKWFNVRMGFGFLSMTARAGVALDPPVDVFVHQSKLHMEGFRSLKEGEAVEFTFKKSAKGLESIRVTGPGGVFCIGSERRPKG
Description: Figure S5. Fluorescence quenching assay measuring binding of PH-31 to the cold-shock domain of
(1 picture or pasted object on this page, not shown here)

JAR cells = assay: RT-qPCR of mature let-7 in JAR cells; format: cell-based, human; conditions: 24 h treatment
Experimental: differential scanning fluorimetry (nanoDSF) instrument at temperatures between 20 °C and 90 °C and a temperature slope of 1 °C per minute with an excitation power of 50–60 %. A total protein concentration of 30 µM and compound concentrations from 100 µM to 0.78 µM corresponding to […] to 0.039 % DMSO, respectively, were used. Compound and protein were incubated for 45 minutes at room temperature in buffer containing 30 mM NaH2PO4, 50 mM NaCl, 1 mM MgCl2, and 50 µM ZnCl2 at pH 8 and 10 µL sample was loaded to each nanoDSF standard capillary (NanoTemper). The ratio of intrinsic tryptophan fluorescence at 350 nm and 330 nm was measured and the first derivative was determined to detect the inflection points using the software of the device.
RT-qPCR. JAR cells (obtained from DSMZ, German Collection of Microorganisms and Cell Cultures, Braunschweig, Germany, DSMZ no. ACC462)1 were cultured in 24-well plates and treated with the compound (PH-31) for 24 h with a total DMSO concentration of 0.5 % in all wells. RNA was extracted using RNeasy Mini Kit (Qiagen) and 20 ng of total RNA was used for reverse transcription using the TaqMan microRNA Reverse Transcription Kit (Applied Biosystems) following the manufacturer's protocols. […]

IC50 (LIN28–let-7 interaction): 18 µM
Kd [1]: 16.5 ± 2.8 µM
SMILES: O=C(C1=C(O)C(=O)N(c2ccc(O)c(C(=O)O)c2)C1c1ccc(-c2nccs2)cc1)c1ccc(Br)cc1 (stereo not shown) [C902/PH-31]
level of mature let-7a (JAR cells): increased levels
level of mature let-7g (JAR cells): increased levels

Reference: PMC8201479, “Trisubstituted Pyrrolinones as Small-Molecule Inhibitors Disrupting the Protein–RNA Interaction of LIN28 and Let-7” (ACS Medicinal Chemistry Letters, 2021)
